Like-named read-outs stand apart in the source and are kept apart here.
Experiments:
[1] = molecular target: T1, AAK1 (full length human) in transfected HEK293F cells (Homo sapiens, UniProt Q2M2I8); test: HEK281 cell-based assay (phospho-mu2 Western blot); conditions: HEK281 cell-based assay, read-out: CBA IC50
T1 construct: expressed in transfected cells; host or cells: HEK293F
Procedure: HEK293F cells were cultured in media containing DMEM (Gibco, cat. #11965), 10% FBS (SAFC Biosciences, cat. #12103C), 1×GPS (glutamine, penicillin and streptomycin). On day one, cells were plated on a 10 cm dish so that they are ˜80% confluent at time of transfection. Roughly 12 million cells were in a 10 cm dish at time of transfection. On day two, each dish was transfected with 48 ug DNA and 144 ul Lipofectamine 2000 (Invitrogen, cat.#11668-019). The DNA was comprised of a mixture (per 10 cm dish) containing 3 ug AAK1/HA/pIRES (full length human, NCBI accession no. NP_055726.2), 45 μg Flag/AP2MI/pcDNA (full length human), and 1.5 ml OPTI-MEM. The Lipofectamine 2000 is made up of a mixture (per 10 cm dish) containing 144 μl Lipofectamine 2000 and 1.5 ml OPTI-MEM. Each mixture was transferred to individual 15 ml tubes and incubated at RT for 5 minutes, and then the two mixes were combined and incubated at RT for 20 minutes. Growth media was then aspirated from each 10 cm plate and replaced with 10 ml of DMEM+10% FBS (no GPS). Finally, 3 ml DNA/Lipofectamine mix was added to each 10 cm dish and mix gently followed by incubate of plate overnight at 37° C. and 5% CO2.
On day three, compounds were diluted in 100% DMSO at 1000× final concentration, followed by 3-fold serial dilutions for a total of 5 concentrations tested. Four compounds were tested per 10 cm dish. One ul of each compound dilution was then pipetted into a deep-well, 96-well plate, followed by addition of 500 μl DMEM+0.5% FBS into each well for a 2× final concentration of each compound. Cells were resuspended in a 10 cm dish by simple pipetting (HEK293 cells come off the plate that easy at this point) and then transferred to a 50 ml conical tube and pelleted by centrifugation at 1000 rpm for 5 min. Cell pellets were then resuspended in 2.75 ml DMEM+0.5% FBS per 10 cm dish and 100 μl of cell suspension transferred into each well of 96-well TC plate. Finally, 100 μl of 2× compound diluted in DMEM+0.5% FBS was then added into wells containing cell suspension for a 1× final concentration. Plates were then incubated at 37° C. and 5% CO2 for 3 hours followed by transferring of cell suspensions from each well into 12-tube PCR strips. The PCR strips were spun in a tip rack at 1000 rpm for 5 minutes to pellet cells and media was then removed by pipetting without disturbing the cell pellet.
To prepare for Western Blot analysis, cell pellets were resuspend in 40 ul 1×LDS-PAGE sample buffer (Invitrogen, cat.# NP0008)+2× Halt phophatase and protease inhibitor cocktail (Thermo Scientific, cat.#1861284), followed by sonicating each with microtip sonicator set at 5 for 8-10 seconds. Five ul of 10× NuPage Sample Reducing Agent (with […]) was to each sample followed by heat denaturing at 70 C. for 10 min on PCR machine. A total of 10 μl per sample was loaded into each lane of a 4-20% Tris-Glycine Criterion 26-well gel (Biorad, cat.#345-0034) for the phospho-mu2 blot and 10 μl per lane in a 4-12% Bis-Tris (+MES buffer) NuPAGE 26-well gel (Invitrogen, cat.# WG1403BX10) for the mu2 blot. For controls, 2 ng of phospho-mu2 or 20 ng mu2/Flag proteins were loaded in the last well of each gel. After SDS-PAGE, samples on each gel were transferred to PVDF membrane using an iBlot and membranes were blocked for one hour in TBST+5% milk, followed by wash 3× for 5-10 min with TBST. Criterion gels were probed with rabbit anti-phospho-mu2 (1:5000; a rabbit polyclonal antibody produced by New England Peptide and affinity purified at Lexicon) in TBST+5% BSA, whereas, NuPAGE gels were probed with mouse anti-Flag (1:500; Sigma, cat.# F1804) in TBST+5% milk, and these primary antibodies were incubated overnight at 4° C. on a rocker.

[2] = molecular target: T2, AAK1 (full-length human protein) (Homo sapiens, UniProt Q2M2I8); test: P81 filter plate assay; type: biochemical
T2 construct: NP_055726.2
Procedure: Compounds were serially diluted into a Labcyte LDV plate (Labcyte, cat# LP-0200) using a Mutiprobe (PerkinElmer) and Biomek FX (Beckman Coulter) so that the highest compound concentration was at 96 μM. Compounds were then pinged (75 nL per well) into a Greiner 384-well reaction plate (Greiner, #781076) using an ECHO 550 Liquid Handler (Labcyte). A total of 12 μl reaction buffer (IMAP buffer containing Tween and DTT, from Molecular Devices) was then added to each well of columns 1 and 13 for the negative controls and 12 μl of 2×AAK1 (0.2 nM full-length human protein, NCBI accession no. NP_055726.2) was added to the remaining wells. Enzyme was then pre-incubated with compound for 10 minutes at RT. Reactions were initiated upon Minitrak (PerkinElmer) addition of 12 μl substrate mix containing 2× Mu2 (0.2 μM, full length human protein), 2× cold ATP (2 μM), and 1.3 μCi of hot ^33P-ATP. Reactions proceeded for one hour at RT. Meanwhile, Millipore 384-well P81 filter plates (Millipore, catalog # MZPHN0W10) were placed on a plate washer (Zoom Z W, from Titertek) and pre-wet with 50 μl 1% phosphoric acid. Kinase reactions were then stopped upon addition of 24 μl of 2% phosphoric acid to each well and the Minitrak was then used to transfer 40 μl from each well into the pre-wet Millipore 384-well P81 filter plates. Reaction mixtures were incubated for 10 minutes at RT in the P81 plates, followed by washing five times with 100 μl/well of 1% phosphoric acid using the Zoom filter washer. The bottom of each filter plate was sealed followed by addition of 20 μl Microscint 40 to each well, sealing the top of the plates with Flashplate cover, and then waiting one hour until reading on the TopCount (PerkinElmer).

[3] = pyrazolo[1,5-a]pyrimidine-based inhibitors
[4] = Table 1 imidazo[1,2-b]pyridazines

T2 sequence (Q2M2I8 1-863 isoform Q2M2I8-2): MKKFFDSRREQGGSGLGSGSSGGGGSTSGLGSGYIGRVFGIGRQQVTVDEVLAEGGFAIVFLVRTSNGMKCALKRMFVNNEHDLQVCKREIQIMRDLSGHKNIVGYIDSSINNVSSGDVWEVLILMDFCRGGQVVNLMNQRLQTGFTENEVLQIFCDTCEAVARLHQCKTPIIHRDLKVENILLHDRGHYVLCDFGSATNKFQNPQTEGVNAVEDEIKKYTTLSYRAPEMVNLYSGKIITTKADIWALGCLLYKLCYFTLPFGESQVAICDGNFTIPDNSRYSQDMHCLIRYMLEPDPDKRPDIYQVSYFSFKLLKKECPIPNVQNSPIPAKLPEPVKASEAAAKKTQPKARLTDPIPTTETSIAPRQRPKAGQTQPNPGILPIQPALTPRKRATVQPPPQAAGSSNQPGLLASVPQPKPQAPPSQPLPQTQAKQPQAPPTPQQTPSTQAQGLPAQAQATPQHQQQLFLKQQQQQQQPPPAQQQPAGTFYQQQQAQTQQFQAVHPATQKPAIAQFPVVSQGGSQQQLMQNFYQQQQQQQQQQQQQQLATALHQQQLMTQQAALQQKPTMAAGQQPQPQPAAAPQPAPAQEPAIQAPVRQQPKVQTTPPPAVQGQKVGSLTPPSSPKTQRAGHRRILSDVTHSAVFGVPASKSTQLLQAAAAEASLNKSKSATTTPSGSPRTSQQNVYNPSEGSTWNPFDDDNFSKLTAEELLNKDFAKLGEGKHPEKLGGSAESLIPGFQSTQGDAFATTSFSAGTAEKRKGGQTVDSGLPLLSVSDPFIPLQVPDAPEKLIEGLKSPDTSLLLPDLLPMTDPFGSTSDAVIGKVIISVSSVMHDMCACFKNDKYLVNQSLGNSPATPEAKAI
T1 sequence (Q2M2I8 1-863 isoform Q2M2I8-2): as above

Row | SMILES | IC50 [1, 3] [nM] | IC50 [2, 3] [nM] | IC50 [1, 4] [nM] | IC50 [2, 4] [nM]
1 | COc1ncccc1-c1cnn2ccc(N3CCN(C(=O)N4CCCC4)CC3)nc12 | ≤ 100 | ≤ 10 | – | –
2 | CC(C)OC(=O)N1CCN(c2ccn3ncc(-c4cnccc4F)c3n2)CC1 | – | ≤ 100 | – | –
3 | COc1ncccc1-c1cnn2ccc(N3CCN(C(=O)OCCF)CC3)nc12 | ≤ 10 | ≤ 10 | – | –
4 | CN(C(=O)CC(F)(F)F)[C@H]1CCN(c2ccn3ncc(-c4ccccn4)c3n2)C1 | ≤ 10 | ≤ 10 | – | –
5 | CC(C)OC(=O)N1CCN(c2ccn3ncc(-c4ccccn4)c3n2)CC1 | ≤ 100 | ≤ 10 | – | –
6 | COc1cncc(-c2cnn3ccc(N4CCN(C(=O)OC(C)C)CC4)nc23)c1 | ≤ 100 | ≤ 10 | – | –
7 | CC(C)OC(=O)N1CCN(c2ccn3ncc(-c4cccnc4OC(C)C)c3n2)CC1 | ≤ 100 | ≤ 10 | – | –
8 | CC(C)OC(=O)N1CCN(c2ccn3ncc(-c4cccnc4)c3n2)CC1 | – | ≤ 10 | – | –
9 | COc1ccc(-c2cnn3ccc(N4CCN(C(=O)OC(C)C)CC4)nc23)c(OC)n1 | ≤ 10 | ≤ 10 | – | –
10 | CC(C)OC(=O)N1CCN(c2ccn3ncc(C(C)C)c3n2)CC1 | – | ≤ 100 | – | –
11 | COc1ccc(-c2cnn3ccc(N4CCN(C(=O)OC(C)C)CC4)nc23)cn1 | ≤ 1000 | ≤ 10 | – | –
12 | CN(C(=O)CC(C)(C)C)[C@H]1CCN(c2ccc3ncc(-c4cccnc4O)n3n2)C1 | – | – | ≤ 1000 | ≤ 100
13 | COc1ncccc1-c1cnn2ccc(N3CCN(C(=O)OC4CCCC4)CC3)nc12 | ≤ 10 | ≤ 10 | – | –
14 | CC(C)OC(=O)N(C)[C@H]1CCN(c2ccn3ncc(-c4ccncc4)c3n2)C1 | – | ≤ 100 | – | –
15 | CC(C)OC(=O)N1CCN(c2ccn3ncc(-c4ccncc4)c3n2)CC1 | ≤ 100 | ≤ 10 | – | –
16 | CC(C)(C)OC(=O)N1CC=C(c2ccn3nccc3n2)CC1 | – | ≤ 100 | – | –
17 | CCNC(=O)c1cnn2ccc(N3CCN(C(=O)OC(C)C)CC3)nc12 | – | ≤ 100 | – | –

Row | SMILES | IC50 [1, 3] [nM] | IC50 [2, 3] [nM] | IC50 [1, 4] [nM] | IC50 [2, 4] [nM]
18 | CN(C(=O)N1CCCC1)[C@H]1CCN(c2ccc3ncc(-c4ccccn4)n3n2)C1 | – | – | – | ≤ 100
19 | CCOC(=O)c1cnn2ccc(N3CCN(C(=O)OC(C)C)CC3)nc12 | – | ≤ 100 | – | –
20 | CN(C(=O)N1CCCC1)[C@H]1CCN(c2ccn3ncc(Br)c3n2)C1 | – | ≤ 100 | – | –
21 | CC(C)OC(=O)N1CCN(c2ccn3ncc(-c4cccnc4O)c3n2)CC1 | ≤ 100 | ≤ 10 | – | –
22 | CCOC(=O)N1CCN(c2ccn3ncc(-c4cccnc4OCC)c3n2)CC1 | ≤ 10 | ≤ 10 | – | –
23 | CN(C(=O)CC1CC1)[C@H]1CCN(c2ccn3ncc(-c4ccccn4)c3n2)C1 | – | ≤ 100 | – | –
24 | CC(C)Cn1cc(-c2cnn3ccc(N4CCN(C(=O)OC(C)C)CC4)nc23)cn1 | – | ≤ 100 | – | –
25 | CC(C)OC(=O)N1CCN(c2ccn3nccc3n2)CC1 | – | ≤ 10 | – | –
26 | CC(C)OC(=O)N1CCN(c2ccn3ncc(-c4cnccn4)c3n2)CC1 | – | ≤ 100 | – | –
27 | CC(C)NC(=O)c1cnn2ccc(N3CCN(C(=O)OC(C)C)CC3)nc12 | – | ≤ 1000 | – | –
28 | COc1ccnc(-c2cnn3ccc(N4CCN(C(=O)OC(C)C)CC4)nc23)c1 | – | ≤ 10 | – | –
29 | Cc1nn(C)c(C)c1-c1cnn2ccc(N3CCN(C(=O)OC(C)C)CC3)nc12 | – | ≤ 100 | – | –
30 | CC(C)OC(=O)N1CCN(c2ccn3ncc(-c4cncnc4)c3n2)CC1 | – | ≤ 100 | – | –
31 | CCOc1cccc(-c2cnn3ccc(N4CCN(C(=O)OC(C)C)CC4)nc23)c1 | – | ≤ 10 | – | –
32 | CNC(=O)c1cnn2ccc(N3CCN(C(=O)OC(C)C)CC3)nc12 | – | ≤ 100 | – | –
33 | CN(C(=O)CC(F)(F)F)[C@H]1CCN(c2ccn3ncc(Br)c3n2)C1 | – | ≤ 100 | – | –

Next, values leading:

Row | IC50 [1, 3] [nM] | IC50 [2, 3] [nM] | IC50 [1, 4] [nM] | IC50 [2, 4] [nM] | SMILES
34 | ≤ 100 | ≤ 10 | – | – | COCc1ccccc1-c1cnn2ccc(NC[C@@H]3CCCN3C(=O)OC(C)(C)C)nc12
35 | – | ≤ 100 | – | – | COc1ncccc1-c1cnn2ccc(N3CCN(S(=O)(=O)CC(C)C)CC3)nc12
36 | – | ≤ 10 | – | – | CC(C)(C)CCN1C(=O)CC[C@H]1CNc1ccn2ncc(-c3ccccc3)c2n1
37 | ≤ 100 | ≤ 10 | – | – | COc1ncccc1-c1cnn2ccc(N3CCN(C(=O)N(C)C(C)C)CC3)nc12
38 | ≤ 100 | ≤ 10 | – | – | COc1ncccc1-c1cnn2ccc(N3CCN(C(=O)N(C)C(C)(C)C)CC3)nc12
39 | – | – | ≤ 1000 | ≤ 10 | COc1ccccc1-c1cnc2ccc(NC[C@@H]3CCC(=O)N3CCC(C)(C)C)nn12
40 | – | ≤ 100 | – | – | COc1ccccc1-c1cnn2ccc(N3CC[C@H](N(C)C(=O)CC(F)(F)F)C3)nc12
41 | – | ≤ 100 | – | – | COc1ncccc1-c1cnn2ccc(N3CC(N(C)C(=O)OC(C)C)C3)nc12
42 | ≤ 10 | ≤ 10 | – | – | COc1ccc(-c2cnn3ccc(NC[C@@H]4CCCN4C(=O)OC(C)(C)C)nc23)cc1
43 | ≤ 100 | ≤ 10 | – | – | CCOc1ccccc1-c1cnn2ccc(NC[C@@H]3CCC(=O)N3CCC(C)(C)C)nc12
44 | ≤ 10 | ≤ 10 | – | – | COc1ncccc1-c1cnn2ccc(N3CCN(C(=O)NC(C)C)CC3)nc12
45 | – | ≤ 100 | – | – | COc1ccccc1-c1cnn2ccc(N3CC[C@H](N(C)C(=O)OC(C)C)C3)nc12
46 | ≤ 100 | ≤ 10 | – | – | COc1cnccc1-c1cnn2ccc(NC[C@@H]3CCC(=O)N3CCC(C)(C)C)nc12
47 | – | ≤ 10 | – | – | COCCOC(=O)N1CCN(c2ccn3ncc(-c4ccccc4OC)c3n2)CC1
48 | ≤ 10 | ≤ 10 | – | – | CC(C)(C)NC(=O)N1CCC[C@H]1CNc1ccn2ncc(Br)c2n1
49 | ≤ 10 | ≤ 10 | – | – | COc1ccccc1-c1cnn2ccc(NC[C@@H]3CCC(=O)N3CCC(C)(C)C)nc12
50 | ≤ 100 | ≤ 10 | – | – | COc1ccccc1-c1cnn2ccc(NC[C@@H]3CCCN3C(=O)CC(F)(F)F)nc12
51 | ≤ 1000 | ≤ 10 | – | – | CCCC(=O)N(C)[C@H]1CCN(c2ccn3ncc(-c4cccnc4OC)c3n2)C1
52 | – | ≤ 100 | – | – | COc1ncccc1-c1cnn2ccc(N3CCN(C(=O)OC(C)C)C(C)(C)C3)nc12
53 | – | ≤ 1000 | – | – | COc1ncccc1-c1cnn2ccc(N(CCCC(F)(F)F)C(C)=O)nc12
54 | – | ≤ 1000 | – | – | COc1ncccc1-c1cnn2ccc(N3CC(N(C)C(=O)OC(C)(C)C)C3)nc12
55 | – | ≤ 1000 | – | – | CCCC(=O)N(C)[C@H]1CCN(c2ccn3ncc(-c4ccccn4)c3n2)C1

Source: patent US20150164899A1, “INHIBITION OF ADAPTOR ASSOCIATED KINASE 1 FOR THE TREATMENT OF PAIN” (priority 2012, published 2015)
